Target: T1, AXL (human catalytic domain) (Homo sapiens, UniProt P30530)
T1 construct: purchased Upstate Ltd. 14-512
T1 sequence (P30530 473-894): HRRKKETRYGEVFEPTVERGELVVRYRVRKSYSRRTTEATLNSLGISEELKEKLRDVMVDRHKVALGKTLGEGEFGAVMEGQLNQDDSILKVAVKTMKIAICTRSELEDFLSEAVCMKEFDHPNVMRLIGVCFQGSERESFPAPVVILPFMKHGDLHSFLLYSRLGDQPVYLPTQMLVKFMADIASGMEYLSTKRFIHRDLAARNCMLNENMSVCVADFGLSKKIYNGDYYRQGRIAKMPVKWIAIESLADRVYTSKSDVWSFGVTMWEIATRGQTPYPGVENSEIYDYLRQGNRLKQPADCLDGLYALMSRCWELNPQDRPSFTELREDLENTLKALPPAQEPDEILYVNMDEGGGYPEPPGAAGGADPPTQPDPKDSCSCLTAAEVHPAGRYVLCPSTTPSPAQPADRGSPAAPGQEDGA
Assay: AXL (human catalytic domain) Enzyme Activity Assay (IMAP fluorescence polarisation)
Assay type: biochemical
Experimental: Biological Methods AXL (human catalytic domain) Enzyme Activity Assay Reagents
Kinase Assay Reaction Buffer: This consisted of 20 mM HEPES pH 7.0, 10 mM MgCl2, 1 mM DTT, […], 0.01% Triton X100 (v/v), and 0.01% BSA (w/v). All buffer components were purchased from Sigma-Aldrich at reagent grade or higher.
Kinase: Recombinant AXL isoform 1 (aa473-894 corresponding to Genbank Accession Number NP 068713) at 2 mg/mL (20.8 μM) was purchased from Upstate Ltd. (Product code 14-512, lot #28164U). The enzyme was stored at −80° C. and a working stock was prepared to a concentration of 30 nM by diluting 20.8 μM stock 1:693 in cold (4° C.) 1× Reaction Buffer. Final enzyme concentration in the assay was 15 nM.
Substrate: Fluorescein labelled CSK-tide 5FAM-[…]-NH2 was obtained from Molecular Devices (Product code R7270) and used at a working concentration of 200 nM by diluting the 100 μM stock 1:500 in 1× Reaction Buffer in a mix with the enzyme. A negative control (lacking enzyme) was prepared at the same concentrations. Final substrate concentration in the assay was 100 nM.
ATP: Supplied by Sigma (product code A-7699). A 100 mM ATP stock was prepared in […] and used at a working concentration of 375 μM by diluting the 100 mM stock 1:266.6 in Reaction Buffer. Final ATP concentration in the assay was 150 μM; this concentration represents the KM.ATP for this enzyme calculated in this assay.
IMAP Reagents: IMAP screening express kit was obtained from Molecular Devices (product code R8127). The binding reagent was gently re-suspended before diluting by 1:1000 in buffer (Binding Buffer is supplied as a 5× stock and so was diluted with water prior to use—this assay used 40% buffer A and 60% buffer B) and then vortexed before addition to wells. The binding reagent was used at a final dilution of 1:1333.
1 μL samples of test compounds in 10% DMSO/water were added to “test” wells by dry-spotting using a Matrix Platemate Plus. 5 μL Kinase/Substrate in Reaction Buffer were added to columns 1-22 of a Corning black low binding 384 well #6754 (90 μL volume) microplate to give 12 nM and 100 nM reaction concentration respectively. 5 μL substrate in Reaction Buffer was added to columns 23 and 24 to give 100 nM reaction concentration. 4 μL ATP in Reaction Buffer was added to all wells to give 150 μM reaction concentration. The reaction mixture was then incubated at room temperature for 60 minutes. The incubation period was followed by the addition of 20 μL IMAP Binding Reagent in Binding Buffer to all wells. The IMAP reaction detection was further incubated at room temperature overnight. The FP on a Tecan Ultra Plate reader was recorded as a single read at Ex485 Em535.
Percentage inhibition was calculated based on activity of the test sample minus the average values in the blank wells relative to the average values measured in control wells minus the average values in the blank wells.
IC50 values were calculated from 10 point dose sigmoid ‘dose-response’ curves using XIfit software (IDBS Inc, USA). Data were fitted to a 4 parameter logistic model/sigmoidal dose response defined by the following equation:
[formula] where: • A=fit minimum (locked to 0); • B=fit maximum (locked to 100); • C=fit midpoint (pre-fit to 1); and • D=slope at linear portion of curve, hillslope (pre-fit to 0.1).
The value for C represents the IC50 of the test compound.

[1] = first data set, recombinant AXL isoform 1 aa473-894, 150 μM ATP
[2] = further data set (WW-001 through WW-169, XX-001 through XX-469, YY-001 through YY-016, ZZ-001 through ZZ-003), 150 μM ATP

Row | Compound | IC50 [1] [nM] | IC50 [2] [nM]
1 | Cc1ccc(-c2cccc3nc(NC(=O)C4CC4)nn23)cc1 [WW-047] | < 1000 | 100 to 1000
2 | O=C(Nc1nc2cccc(-c3ccc4c(c3)OCO4)n2n1)C1CC1 [WW-049] | < 1000 | 100 to 1000
3 | NCc1ccc(-c2cccc3nc(NC(=O)C4CC4)nn23)cc1 [WW-050] | 1000 to 10000 | 1000 to 10000
4 | O=C(Nc1nc2cccc(-c3cncc(F)c3)n2n1)C1CC1 [WW-052] | 1000 to 10000 | 1000 to 10000
5 | O=C(Nc1nc2cccc(-c3ccn[nH]3)n2n1)C1CC1 [WW-053] | 1000 to 10000 | 1000 to 10000
6 | Nc1cccc(-c2cccc3nc(NC(=O)C4CC4)nn23)c1 [WW-054] | < 1000 | 100 to 1000
7 | Cc1ccc(-c2cccc3nc(NC(=O)C4CC4)nn23)s1 [WW-055] | 1000 to 10000 | 1000 to 10000
8 | O=C(Nc1nc2cccc(-c3ccoc3)n2n1)C1CC1 [WW-056, Cyclopropanecarboxylic acid (5-furan-3-yl [1,2,4]triazolo[1,5-a]pyridin-2-yl)-amide] | 1000 to 10000 | 1000 to 10000
9 | O=C(Nc1nc2cccc(-c3cccs3)n2n1)C1CC1 [WW-057] | 1000 to 10000 | 1000 to 10000
10 | Cc1csc(-c2cccc3nc(NC(=O)C4CC4)nn23)c1 [WW-058] | 1000 to 10000 | 1000 to 10000
11 | O=C(Nc1nc2cccc(-c3ccsc3)n2n1)C1CC1 [WW-059] | < 1000 | 100 to 1000
12 | O=C(Nc1nc2cccc(-c3cn[nH]c3)n2n1)C1CC1 [WW-060, cyclopropanecarboxylic acid [5-(1H-pyrazol-4-yl)-[1,2,4]triazolo[1,5-a]pyridin-2-yl]-amide] | 1000 to 10000 | 1000 to 10000
13 | O=C(Nc1nc2cccc(-c3ccco3)n2n1)C1CC1 [WW-061] | 1000 to 10000 | 1000 to 10000
14 | O=C(Nc1nc2cccc(-c3ccc(N4CCOCC4)nc3)n2n1)C1CC1 [WW-062] | 1000 to 10000 | 1000 to 10000
15 | O=C(Nc1nc2cccc(-c3ccc(-c4ccccc4)cc3)n2n1)C1CC1 [WW-063] | < 1000 | 100 to 1000
16 | Cn1cc(-c2cccc3nc(NC(=O)C4CC4)nn23)cn1 [WW-064] | < 1000 | 100 to 1000
17 | Cn1ccc2cc(-c3cccc4nc(NC(=O)C5CC5)nn34)ccc21 [WW-066] | < 1000 | 100 to 1000
18 | COc1ccc(-c2cccc3nc(NC(=O)C4CC4)nn23)cc1F [WW-067] | 1000 to 10000 | 1000 to 10000
19 | CC(=O)Nc1ccc(-c2cccc3nc(NC(=O)C4CC4)nn23)cc1 [WW-068] | 1000 to 10000 | 1000 to 10000
20 | CN(C)c1ccc(-c2cccc3nc(NC(=O)C4CC4)nn23)cc1 [WW-069] | < 1000 | 100 to 1000
21 | COC(=O)c1ccc(-c2cccc3nc(NC(=O)C4CC4)nn23)cc1 [WW-070] | 1000 to 10000 | 1000 to 10000
22 | CN(C)c1cccc(-c2cccc3nc(NC(=O)C4CC4)nn23)c1 [WW-071] | 1000 to 10000 | 1000 to 10000
23 | CCCCNc1cccc2nc(NC(=O)C3CC3)nn12 [WW-073] | 1000 to 10000 | 1000 to 10000
24 | O=C(Nc1nc2cccc(NCc3ccccn3)n2n1)C1CC1 [WW-075, Cyclopropanecarboxylic acid {5-[(pyridin-2-ylmethyl)-amino]-[1,2,4]triazolo[1,5-a]pyridin-2-yl}-amide] | 1000 to 10000 | 1000 to 10000
25 | CN1CCCC1CCNc1cccc2nc(NC(=O)C3CC3)nn12 (stereo not drawn) [WW-076] | 1000 to 10000 | 1000 to 10000
26 | O=C(Nc1nc2cccc(NCCc3c[nH]c4ccccc34)n2n1)C1CC1 [WW-077] | 1000 to 10000 | 1000 to 10000
27 | O=C(Nc1nc2cccc(NC3CCCC3)n2n1)C1CC1 [WW-078] | 1000 to 10000 | 1000 to 10000
